# In patent US6271233A, “Method for treating ocular neovascular diseases” (priority 1999, dated 2001):
# Key:
# PDGF receptors = assay: Cellular autophosphorylation assay, transfected Chinese hamster ovary cells: PDGF receptors; format: cell-based
# Procedure: (§1) In vivo activity requires drugs to enter cells and therefore agents are tested in cellular autophosphorylation assays, using Chinese hamster ovary cells transfected with one of several RTK genes.
# [1] = test system: other RTKs including VEGF receptors; assay: Kinase assay, other RTKs including VEGF receptors; format: biochemical; settings: in words
# VEGF receptors = assay: Cellular autophosphorylation assay, transfected Chinese hamster ovary cells: VEGF receptors; format: cell-based
# Procedure: as §1
# [2] = test system: retinal vascular development; assay: Retinal vascular development in neonatal mice; format: in vivo, mouse (C57/BL6J)
# Procedure: Litters of newborn C57/BL6J mice are divided into treatment and control groups which received daily subcutaneous injections of 10 mg/kg of drug or vehicle, respectively. […] The eyes are removed and fixed for 1 hour in 10% phosphate-buffered formalin. The cornea and lens are removed and the entire retina is carefully dissected from the eyecup, radially cut from the edge of the retina to the equator in all 4 quadrants, and flat-mounted in Aquamount with photoreceptors facing upward.
# c-erbB2 = assay: Cellular autophosphorylation assay, transfected Chinese hamster ovary cells: c-erbB2; format: cell-based
# Procedure: as §1
# c-Kit = target: T1, c-Kit (Homo sapiens, UniProt P10721); format: cell-based; settings: transfected Chinese hamster ovary cells
# T1 construct: expressed in transfected cells; host or cells: Chinese hamster ovary cells
# Procedure: as §1
# insulin receptor = assay: Cellular autophosphorylation assay, transfected Chinese hamster ovary cells: insulin receptor; format: cell-based
# [3] = test system: all other tyrosine kinase and serine/threonine kinases tested; assay: Kinase assay, all other tyrosine kinase and serine/threonine kinases tested; format: biochemical; settings: in words
# Flt-1 = target: T2, Flt-1 (Homo sapiens, UniProt P17948); assay: Tyrosine kinase assay, phosphorylation of poly(GluTyr) by GST-fusion kinase domain: Flt-1; format: biochemical; settings: in words
# T2 construct: kinase domains of human VEGF receptors 1 and 2
# T2 sequence (P17948 827-1158 limits assumed): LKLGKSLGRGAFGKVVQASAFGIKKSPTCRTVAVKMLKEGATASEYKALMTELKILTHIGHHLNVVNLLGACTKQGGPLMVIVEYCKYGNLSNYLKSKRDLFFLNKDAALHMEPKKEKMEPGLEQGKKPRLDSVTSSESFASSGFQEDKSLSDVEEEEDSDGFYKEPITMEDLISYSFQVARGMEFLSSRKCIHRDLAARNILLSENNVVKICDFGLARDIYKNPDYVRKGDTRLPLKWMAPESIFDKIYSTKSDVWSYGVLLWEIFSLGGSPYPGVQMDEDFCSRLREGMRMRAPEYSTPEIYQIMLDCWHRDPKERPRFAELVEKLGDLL
# [4] = test system: choroidal neovascularization; assay: Laser-induced choroidal neovascularization in mice; settings: 50 mg/kg/day by gavage
# Procedure: Choroidal neovascularization is generated by modification of a previously described technique. […] Three burns of krypton laser photocoagulation (100pm spot size, 0.1 seconds duration, 150 mW) are delivered to each retina using the slit lamp delivery system of a Coherent Model 920 Photocoagulator and a hand held cover slide as a contact lens. Burns are performed in the 9, 12, and 3 o'clock positions of the posterior pole of the retina. Production of a bubble at the time of laser, which indicates rupture of Bruch's membrane, is an important factor in obtaining CNV ^16, so only mice in which a bubble is produced for all three burns are included in the study. Ten mice are randomly assigned to treatment with vehicle alone and 10 mice received vehicle containing 120 μmoles/kg/day of one of the test drugs given orally by gavage. After 14 days, the mice are killed with an overdose of pentobarbital sodium, and their eyes are rapidly removed and frozen in optimal cutting temperature embedding compound (OCT).
# After a 10 minute wash in 0.05 M Tris buffer, pH 7.6, slides are developed in Histomark Red (Kirkegaard and Perry) to give a red reaction product, and mounted with Cytoseal (Stephens Scientific, Riverdale, N.J.). Some slides are counterstained with Contrast Blue (Kirkegaard and Perry).
# For each lesion, area measurements are made for all sections on which some of the lesion appeared and added together to give the integrated area measurement. Values are averaged to give one experimental value per mouse. A 2-sample t-test for unequal variances is performed to compare the log mean integrated area between treatment and control mice.
# RTKs = settings: in words; cited from earlier work
# [5] = test system: retinal neovascularization; settings: pigs; cited from earlier work
# retinal blood vessels = settings: administration of exogenous VEGF; cited from earlier work
# T1 sequence (P10721 26-976): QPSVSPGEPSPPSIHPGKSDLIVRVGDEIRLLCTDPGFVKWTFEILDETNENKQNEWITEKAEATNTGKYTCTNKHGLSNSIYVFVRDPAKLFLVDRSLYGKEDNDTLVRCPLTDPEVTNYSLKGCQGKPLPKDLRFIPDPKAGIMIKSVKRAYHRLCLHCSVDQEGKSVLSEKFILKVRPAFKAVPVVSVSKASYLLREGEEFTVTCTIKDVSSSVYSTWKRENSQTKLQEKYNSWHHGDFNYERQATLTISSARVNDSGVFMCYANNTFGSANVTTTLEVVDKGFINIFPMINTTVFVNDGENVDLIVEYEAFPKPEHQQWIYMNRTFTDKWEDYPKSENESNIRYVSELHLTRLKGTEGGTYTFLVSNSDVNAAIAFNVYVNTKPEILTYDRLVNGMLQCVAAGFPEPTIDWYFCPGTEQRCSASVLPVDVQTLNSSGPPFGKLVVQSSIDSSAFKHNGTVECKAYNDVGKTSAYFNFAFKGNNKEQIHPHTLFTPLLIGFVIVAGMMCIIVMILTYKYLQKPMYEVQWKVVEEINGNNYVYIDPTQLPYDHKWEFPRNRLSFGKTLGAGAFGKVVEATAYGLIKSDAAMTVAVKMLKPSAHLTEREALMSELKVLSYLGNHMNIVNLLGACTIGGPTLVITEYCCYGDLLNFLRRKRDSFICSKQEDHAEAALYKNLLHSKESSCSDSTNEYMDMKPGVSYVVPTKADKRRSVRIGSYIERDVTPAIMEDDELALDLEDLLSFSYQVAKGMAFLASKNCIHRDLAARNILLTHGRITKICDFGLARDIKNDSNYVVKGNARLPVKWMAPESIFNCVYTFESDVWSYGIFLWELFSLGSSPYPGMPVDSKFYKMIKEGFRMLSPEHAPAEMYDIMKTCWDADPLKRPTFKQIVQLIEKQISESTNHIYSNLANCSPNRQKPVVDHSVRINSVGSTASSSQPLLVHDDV
compound,measurement,setting,value
Cc1ccc(NC(=O)c2ccccc2)cc1Nc1nccc(-c2cccnc2)n1 [CGP 53 716],inhibition of autophosphorylation of PDGF receptors,PDGF receptors,potent inhibitors
same,inhibition of other RTKs including VEGF receptors,[1],little or no inhibitory activity
same,inhibition of autophosphorylation of VEGF receptors,VEGF receptors,poor inhibitors
Clc1ccc(Nc2nnc(Cc3ccncc3)c3ccccc23)cc1 [CGP 79787D],extent of retinal vessels at P7,"[2]; 10 mg/kg daily s.c. from P0, P7",only extended about half way to the periphery
same,extent of superficial capillary bed at P10,"[2]; 10 mg/kg daily s.c. from P0, P10",has not yet reached the edge of the retina
same,significance of differences in retinal vascular development versus vehicle,"[2]; 10 mg/kg daily s.c., P7 and P10, FIG. 5",highly significant
same,inhibition of autophosphorylation of c-erbB2,c-erbB2,poor inhibitor
same,inhibition of autophosphorylation of c-Kit,c-Kit,inhibits autophosphorylation
same,inhibition of autophosphorylation of PDGF receptors,PDGF receptors,inhibits autophosphorylation
same,inhibition of autophosphorylation of insulin receptor,insulin receptor,poor inhibitor
same,inhibition of autophosphorylation of VEGF receptors,VEGF receptors,inhibits autophosphorylation
same,inhibition of phosphorylation by all other kinases tested,[3],poor inhibitor
same,inhibition of phosphorylation by the kinase domain of human VEGF receptor 1,Flt-1,good inhibitor
same,appearance of overlying retinal vessels,[4]; two weeks after laser,appeared normal
same,choroidal neovascularization at laser-induced rupture sites of Bruch's membrane,[4]; two weeks after laser,very little if any choroidal neovascularization
same,integrated area of lectin staining per lesion,"[4]; n=5, vehicle 0.0713812±0.0066723 mm^2",0.01124±0.001483 mm^2
"O=c1c(-c2ccc(O)cc2)coc2cc(O)cc(O)c12 [Genistein, 4',5,7-trihydroxyisoflavone]",inhibition of RTKs,RTKs,"relatively weak, nonspecific inhibitor"
CN(C)C[C@@H]1CCn2cc(c3ccccc32)C2=C(C(=O)NC2=O)c2cn(c3ccccc23)CCO1 [LY 333531],inhibition of retinal neovascularization after laser-induced branch vein occlusion,[5],partially inhibited retinal neovascularization
VEGF,hyperoxia-induced regression of retinal blood vessels,retinal blood vessels,prevented
